# Tested on: Rattus norvegicus
# Assay: Diuretic activity in rat was determined by measuring sodium excretion at a dose of 10 mg/kg upon oral administration
# Assay type: functional, Urine
row,Compound,Sodium excretion (% of control)
1,CC[C@@H]1CCCCN1C(=O)/C=C/c1c(-c2ccccc2)nn2ccccc12,220%
2,O=C(/C=C/c1c(-c2ccccc2)nn2ccccc12)N1CCCCC1,179%
3,CC[C@H]1CCCCN1C(=O)/C=C/c1c(-c2ccccc2)nn2ccccc12,91%
4,O=C(/C=C/c1c(-c2ccccc2)nn2ccccc12)N1CCCC[C@H]1CCO,280%
5,CCC1CCCCN1C(=O)/C=C/c1c(-c2ccccc2)nc2sc(C)nn12 (stereo unspecified),278%
6,O=C(/C=C/c1c(-c2ccccc2)nn2ccccc12)N1CCCC[C@@H]1CCO [FK453],96%

# Biological target: T1, Adenosine receptor A1 (Cavia porcellus, UniProt P47745)
# T1 sequence (P47745 whole entry): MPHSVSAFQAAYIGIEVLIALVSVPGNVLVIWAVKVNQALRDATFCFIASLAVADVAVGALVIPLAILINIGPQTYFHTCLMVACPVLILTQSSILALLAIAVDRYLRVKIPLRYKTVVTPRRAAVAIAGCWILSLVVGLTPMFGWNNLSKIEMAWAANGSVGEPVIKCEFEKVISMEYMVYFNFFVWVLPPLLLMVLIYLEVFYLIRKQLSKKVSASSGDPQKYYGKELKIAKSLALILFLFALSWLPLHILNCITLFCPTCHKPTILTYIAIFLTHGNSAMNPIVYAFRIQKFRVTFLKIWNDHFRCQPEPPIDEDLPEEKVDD
# Assay: Inhibition of adenosine induced negative inotropic activity against guinea-pig atria (Adenosine A1 receptor) at 10 nM
# Assay type: functional
row,IC50,Compound
1,0.091 µM,CCC1CCCCN1C(=O)/C=C/c1c(-c2ccccc2)nc2sc(C)nn12 (stereo unspecified)

# Biological target: T1, Adenosine receptor A1
# Assay: Inhibition of adenosine induced negative inotropic activity against guinea-pig atria (Adenosine A1 receptor)
# Assay type: functional
row,IC50,Compound
1,0.00056 µM,O=C(/C=C/c1c(-c2ccccc2)nn2ccccc12)N1CCCC[C@H]1CCO

# Biological target: T2, Adenosine receptor A1 (Rattus norvegicus, UniProt P25099)
# T2 sequence (P25099 whole entry): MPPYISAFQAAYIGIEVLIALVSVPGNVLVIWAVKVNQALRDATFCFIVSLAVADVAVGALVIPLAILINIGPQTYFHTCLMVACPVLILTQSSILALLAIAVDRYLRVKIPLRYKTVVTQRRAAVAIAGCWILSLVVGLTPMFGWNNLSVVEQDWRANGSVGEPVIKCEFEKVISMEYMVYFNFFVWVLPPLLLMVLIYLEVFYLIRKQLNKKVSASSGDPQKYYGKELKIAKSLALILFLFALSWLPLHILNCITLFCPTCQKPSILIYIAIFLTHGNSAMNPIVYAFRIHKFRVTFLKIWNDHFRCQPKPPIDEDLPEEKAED
# Assay: Inhibition of [3H]CHA binding against Adenosine A1 receptors of rat cortical membranes
# Assay type: cell membranes, Membrane
row,IC50,Compound
1,0.0172 µM,O=C(/C=C/c1c(-c2ccccc2)nn2ccccc12)N1CCCC[C@H]1CCO
2,10.1 µM,O=C(/C=C/c1c(-c2ccccc2)nn2ccccc12)N1CCCC[C@@H]1CCO [FK453]

# Tested on: Rattus norvegicus
# Assay: Diuretic activity in rat was determined by measuring urine volume at a dose of 10 mg/kg upon oral administration
# Assay type: functional
row,Compound,Urine volume (% of control)
1,CC[C@@H]1CCCCN1C(=O)/C=C/c1c(-c2ccccc2)nn2ccccc12,201%
2,O=C(/C=C/c1c(-c2ccccc2)nn2ccccc12)N1CCCCC1,195%
3,CC[C@H]1CCCCN1C(=O)/C=C/c1c(-c2ccccc2)nn2ccccc12,94%
4,O=C(/C=C/c1c(-c2ccccc2)nn2ccccc12)N1CCCC[C@H]1CCO,272%
5,CCC1CCCCN1C(=O)/C=C/c1c(-c2ccccc2)nc2sc(C)nn12 (stereo unspecified),242%
6,O=C(/C=C/c1c(-c2ccccc2)nn2ccccc12)N1CCCC[C@@H]1CCO [FK453],96%
